The conditions of series [1]: cited from earlier work.
Series [2] deals with CXCL10 expression. Type of series: cell-based, human.
Series [3] concerns rSARS-COV-2mNG. The series is classed as cell-based, SARS-COV-2.

Entries after “also recorded” stand apart in the source; their conditions may differ.

Regarding `CCC(=O)O[C@]1(C(=O)SCF)[C@H](C)C[C@H]2[C@@H]3C[C@H](F)C4=CC(=O)C=C[C@]4(C)[C@@]3(F)[C@@H](O)C[C@@]21C` [Fluticasone propionate], the “solubility in 95% ethanol” value in series [1] (95% ethanol) is given as “slightly soluble”. In addition, in series [1] (dimethyl sulfoxide), the “solubility in dimethyl sulfoxide” value is reported as “freely soluble”. Further, the solubility in dimethylformamide result in series [1] (dimethylformamide) is reported as “freely soluble”. Also, in series [1] (methanol), the solubility in methanol result is “slightly soluble”. Moreover, the solubility in water entry in series [1] (water) was “practically insoluble”.
`COc1cc(OC)c2c(=O)cc(-c3cc(C)c(OCCCN4CCN(C)CC4)c(C)c3)oc2c1` [ZL0969]: the CXCL10 expression entry in series [2] is recorded as “reduces expression levels of CXCL10; also recorded: reduce CXCL10 expression”. Moreover, in series [3], the “virus titer (FFA)” value is listed as “significantly reduce virus titer”.

These data come from patent publication US20240325383A1, “Small Molecule Targeting of BRD4 for Treatment of COVID-19” (Board of Regents, The University of Texas System, priority 2023, published 2024).
